Several values for one entry are separate records, joined by “and”; a condition that tells them apart may be missing. Equal entries are not always repeated. Where two headings read alike, the source gives them in different places.
Test system: SEAP expression in HEK293T cells
Assay: MISO designer cells (CDH-1 + CDH-3 dual switches)
Type: cell-based
Design: SEAP / Bottom (best-fit value) / Top (best-fit value) / Span (best-fit value): unit not given here
Settings: for logIC50 (best-fit value): drug in nM; for SEAP, Drug-3 turn OFF CDH-3-TF (with 1 µM Drug-1): Fig S13f; for SEAP, Drug-3 turn OFF CDH-3-GEMS (+1 µM Drug-3): Fig S13g, representative data; for IC50: Homo sapiens, HEK-293T, read-out: IC50 (best-fit value)
Excerpt: Fig. 5 Orthogonal chemical switches enable implementation of multi-input multi-output control modes in mammalian cells. a Scheme of multi-inputs multi-outputs (MIMO) designer cells where two drugs control two different outputs. b, c Cells were co-transfected with AIR-1/2-GEMS and CDH-3-TF regulate SEAP and Luciferase expression, respectively. […] AIR-1/2-GEMS coupled with SEAP expression circuits were co-transfected with CDH-1/2-TF circuits which control the Luciferase production. Respective drug concentrations ranged from 0.001 nM to 1 µM. […]
We then engineered MISO cells (Fig. 5d) with CDH-1-TF and CDH-3-TF dual switches (Fig. 5e) that encode OFF behaviors controlled by Drug-1 and Drug-3. […] This output behavior is distinct from the typical SISO systems which only show two persistent states (high, low) (Fig. 2c, f). […] This type of output in biological systems could be utilized to produce graded levels of responses that are robust to minor oscillations in drug concentrations, and could be used to dissect fundamental biological processes but also to provide persistent response levels in translational applications.
1-TF and CDH-3-TF circuits. Drug-1 concentrations ranged from 0.001 nM to 1 µM (left) and 1 µM Drug-1 with serial diluted Drug-3 from 0.001 nM to 1 µM (right). g) Quantification of SEAP activity controlled […]
by CDH-1-GEMS and CDH-3-GEMS circuits. […]
Luciferase production (l). b-k) Each data point represents the mean of n = 3 biological replicates, and the dose-dependent curve were fitted using four-parameter nonlinear regression.

[1] = Fig5e SEAP, CDH-3-TF, four-parameter fit
[2] = Fig5f SEAP, CDH-3-GEMS, three-parameter fit

## COc1cc2c(cc1OC(C)C)[C@H](c1ccc(Cl)cc1)N(c1ccc(N(C)C[C@H]3CC[C@H](N4CCN(C)C(=O)C4)CC3)cc1)C(=O)C2 [Drug-3, NVP-CGM097]
[1]
  Bottom (best-fit value): 17.47
  HillSlope (best-fit value): -0.6148
  Span (best-fit value): 17.06
  Top (best-fit value): 34.53
  logIC50 (best-fit value): 1.333
Fig5e, turn OFF CDH-3-TF, 0.001 nM
  SEAP: 33.8408 and 34.0469 and 34.3351
Fig5e, turn OFF CDH-3-TF, 0.01 nM
  SEAP: 29.7183 and 31.0605 and 34.2655
Fig5e, turn OFF CDH-3-TF, 0.1 nM
  SEAP: 37.5532 and 35.9265 and 39.0056
Fig5e, turn OFF CDH-3-TF, 1 nM
  SEAP: 35.3902 and 29.1113 and 33.3839
Fig5e, turn OFF CDH-3-TF, 10 nM
  SEAP: 29.3646 and 23.7323 and 25.8725
Fig5e, turn OFF CDH-3-TF, 100 nM
  SEAP: 25.079 and 20.2253 and 26.0755
Fig5e, turn OFF CDH-3-TF, 1000 nM
  SEAP: 15.9296 and 18.8913 and 19.9566
[2]
  Bottom (best-fit value): 53.47
  Span (best-fit value): 48.26
  Top (best-fit value): 101.7
  logIC50 (best-fit value): 0.4646
Fig5f, turn OFF CDH-3-GEMS, 0.001 nM
  SEAP: 113.362 and 89.612 and 99.5052
Fig5f, turn OFF CDH-3-GEMS, 0.01 nM
  SEAP: 121.028 and 91.7365 and 92.479
Fig5f, turn OFF CDH-3-GEMS, 0.1 nM
  SEAP: 104.447 and 97.6051 and 99.9447
Fig5f, turn OFF CDH-3-GEMS, 1 nM
  SEAP: 100.353 and 82.6179 and 86.7829
Fig5f, turn OFF CDH-3-GEMS, 10 nM
  SEAP: 58.8118 and 64.1853 and 65.9179
Fig5f, turn OFF CDH-3-GEMS, 100 nM
  SEAP: 45.2413 and 57.2529 and 77.3068
Fig5f, turn OFF CDH-3-GEMS, 1000 nM
  SEAP: 32.455 and 54.8353 and 61.4484
Drug-3 0.001 nM with 1 µM Drug-1
  SEAP, Drug-3 turn OFF CDH-3-TF (with 1 µM Drug-1): 20.0495 U/L and 20.062 U/L and 15.0342 U/L
Drug-3 0.01 nM with 1 µM Drug-1
  SEAP, Drug-3 turn OFF CDH-3-TF (with 1 µM Drug-1): 17.0461 U/L and 19.1502 U/L and 14.3967 U/L
Drug-3 0.1 nM with 1 µM Drug-1
  SEAP, Drug-3 turn OFF CDH-3-TF (with 1 µM Drug-1): 19.7901 U/L and 16.3361 U/L and 16.2198 U/L
Drug-3 1 nM with 1 µM Drug-1
  SEAP, Drug-3 turn OFF CDH-3-TF (with 1 µM Drug-1): 20.2218 U/L and 16.2578 U/L and 17.1111 U/L
Drug-3 10 nM with 1 µM Drug-1
  SEAP, Drug-3 turn OFF CDH-3-TF (with 1 µM Drug-1): 16.1201 U/L and 11.9157 U/L and 15.1062 U/L
Drug-3 100 nM with 1 µM Drug-1
  SEAP, Drug-3 turn OFF CDH-3-TF (with 1 µM Drug-1): 12.136 U/L and 6.982 U/L and 12.7567 U/L
Drug-3 1000 nM with 1 µM Drug-1
  SEAP, Drug-3 turn OFF CDH-3-TF (with 1 µM Drug-1): 12.5352 U/L and 7.0164 U/L and 6.482 U/L
Drug-3 0.001 nM + 1 µM Drug-3
  SEAP, Drug-3 turn OFF CDH-3-GEMS (+1 µM Drug-3): 32.0934 U/L and 36.9962 U/L and 29.2725 U/L
Drug-3 0.01 nM + 1 µM Drug-3
  SEAP, Drug-3 turn OFF CDH-3-GEMS (+1 µM Drug-3): 28.8246 U/L and 27.8451 U/L and 33.3513 U/L
Drug-3 0.1 nM + 1 µM Drug-3
  SEAP, Drug-3 turn OFF CDH-3-GEMS (+1 µM Drug-3): 25.7325 U/L and 31.532 U/L and 32.3299 U/L
Drug-3 1 nM + 1 µM Drug-3
  SEAP, Drug-3 turn OFF CDH-3-GEMS (+1 µM Drug-3): 22.1832 U/L and 28.8305 U/L and 36.3315 U/L
Drug-3 10 nM + 1 µM Drug-3
  SEAP, Drug-3 turn OFF CDH-3-GEMS (+1 µM Drug-3): 20.2059 U/L and 25.0579 U/L and 21.1125 U/L
Drug-3 100 nM + 1 µM Drug-3
  SEAP, Drug-3 turn OFF CDH-3-GEMS (+1 µM Drug-3): 19.7003 U/L and 17.1154 U/L and 24.8794 U/L
Drug-3 1000 nM + 1 µM Drug-3
  SEAP, Drug-3 turn OFF CDH-3-GEMS (+1 µM Drug-3): 16.9947 U/L and 17.5781 U/L and 20.7969 U/L
Fig5e SEAP, turn OFF CDH-3-TF, four-parameter fit
  IC50: 21.5 nM
Fig5f SEAP, turn OFF CDH-3-GEMS, three-parameter fit
  IC50: 2.92 nM
